From PMC2806030, “Inhibition of mammalian S6 kinase by resveratrol suppresses autophagy” (Aging (Albany NY), 2009)

How the values were obtained:
Assay in all cases: biochemical
Parameters in all cases: Upstate KinaseProfiler in vitro kinase activity assay, per cent of DMSO control
Conditions in all cases: read-out: Activity (% of Control)
CDK6/cyclinD3(h) = CDK6/cyclinD3(h) (Homo sapiens, UniProt Q00534)
Description: (§1) Kinase profile and kinase assay. A Kinase profile against 100 kinases listed for resveratrol at 20 μM was generated utilizing Upstate's KinaseProfiler™ service. Assay protocols for each kinase are available from Upstate (Lake Placid, NY). In vitro kinase assay was performed as described previously. Briefly, HEK293 cells were transfected with HA-S6K1 wt, HA-S6K1 K100R, or vector as indicated. Cells were treated with 1 μg/ml insulin for 10 minutes prior to harvesting in PBS + 0.5% NP-40 + protease and phosphatase inhibitors. 125 μg of lysate per sample was immunoprecipitated using 0.5 μg/sample of anti-HA High-Affinity (Roche, Basel Switzerland). Beads from immunoprecipitations were washed three times in lysis buffer and once in kinase buffer, and kinase assays were performed with recombinant GST-S6 as substrate (1 μg per assay). In the indicated lanes varying doses of resveratrol or DMSO control were added to the reaction prior to addition of the GST-S6 substrate. All samples were subjected to SDS-PAGE, and 32P incorporation was quantified by using a Bio-Rad (Hercules, CA) Phosphor-Imager and subsequent analysis with ImageJ (NIH).  Figure 4. Resveratrol inhibits S6K1 in vitro. (A) Structural similarity between resveratrol and quercetin, a known kinase inhibitor. (B) Kinase inhibition profile for resveratrol at 20 μM obtained using KinaseProfiler™ (Upstate). Dashed line represents 100% activity as compared to control. Black filled-in bar on the graph indicates S6K1. Complete data set is provided in Supplementary Table 1. Error bars represent s.d.m. (C) Phosphorylation of recombinant GST-tagged S6 by immunoprecipitated HA-S6K1 under increasing concentrations of resveratrol (Res). Autoradiograph depicts S6K1 phosphorylation of GST-S6. (D) Average of three separate kinase assay experiments as performed in (C). Densitometry was performed using NIH ImageJ. Error bars represent s.e.m. […] Therefore, we hypothesized that the effect of resveratrol on autophagy could be related to inhibition of one or more upstream kinases. To test this, we performed an in vitro kinase screen and determined an inhibition profile for resveratrol. […] With the exception of S6K1, these kinases play primary roles in the hematopoietic system, and were thus viewed as unlikely to have been responsible for the effect we were studying. […] On the other hand, S6K1 is known to play a requisite role in the regulation of autophagy in Drosophila, making it a promising candidate for the in vivo target of resveratrol that is responsible for inhibition of autophagy.

PI 3-Kinaseγ(h) = molecular target: T1, PI 3-Kinaseγ(h) (Homo sapiens, UniProt P48736)
T1 construct: gene PIK3CG
Description: as §1

PAK2(h) = PAK2(h) (Homo sapiens, UniProt Q13177)
Sequence of PAK2(h) (Q13177 whole entry): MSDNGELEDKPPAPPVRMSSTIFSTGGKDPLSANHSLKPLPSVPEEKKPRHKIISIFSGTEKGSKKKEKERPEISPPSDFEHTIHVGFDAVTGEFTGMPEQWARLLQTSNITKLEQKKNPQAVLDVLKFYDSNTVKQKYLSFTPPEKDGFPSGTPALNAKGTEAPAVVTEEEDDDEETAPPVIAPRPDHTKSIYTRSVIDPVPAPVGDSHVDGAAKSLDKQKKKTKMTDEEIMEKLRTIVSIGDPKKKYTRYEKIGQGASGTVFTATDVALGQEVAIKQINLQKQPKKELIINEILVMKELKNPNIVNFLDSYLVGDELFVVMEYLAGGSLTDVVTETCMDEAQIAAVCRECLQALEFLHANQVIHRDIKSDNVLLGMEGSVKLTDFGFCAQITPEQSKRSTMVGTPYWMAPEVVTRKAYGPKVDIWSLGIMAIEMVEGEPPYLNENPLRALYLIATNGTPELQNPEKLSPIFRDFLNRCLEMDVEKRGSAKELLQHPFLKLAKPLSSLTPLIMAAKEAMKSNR
Description: as §1

TrkA(h) = molecular target: T2, TrkA(h) (Homo sapiens, UniProt P04629)
T2 construct: gene NTRK1
Description: as §1

PAK3(h) = PAK3(h) (Homo sapiens, UniProt O75914)
Sequence of PAK3(h) (O75914 whole entry): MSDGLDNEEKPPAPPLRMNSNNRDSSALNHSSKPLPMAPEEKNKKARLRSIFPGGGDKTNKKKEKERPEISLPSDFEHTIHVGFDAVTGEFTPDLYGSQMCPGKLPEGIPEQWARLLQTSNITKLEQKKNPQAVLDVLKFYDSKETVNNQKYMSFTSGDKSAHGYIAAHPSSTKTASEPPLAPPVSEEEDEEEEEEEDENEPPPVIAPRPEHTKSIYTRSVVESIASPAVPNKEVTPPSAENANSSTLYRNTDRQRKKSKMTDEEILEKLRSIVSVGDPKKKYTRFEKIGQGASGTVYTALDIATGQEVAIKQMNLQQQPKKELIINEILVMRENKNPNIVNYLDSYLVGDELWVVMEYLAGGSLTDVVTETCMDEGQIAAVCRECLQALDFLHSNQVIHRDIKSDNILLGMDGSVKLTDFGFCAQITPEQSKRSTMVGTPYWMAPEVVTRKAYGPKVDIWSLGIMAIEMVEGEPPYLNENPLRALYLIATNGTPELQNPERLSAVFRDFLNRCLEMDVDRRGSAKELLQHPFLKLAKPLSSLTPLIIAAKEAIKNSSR
Description: as §1

PDGFRα(h) = molecular target: T3, PDGFRα(h) (Homo sapiens, UniProt P16234)
T3 construct: gene PDGFRA
T3 sequence (P16234 whole entry): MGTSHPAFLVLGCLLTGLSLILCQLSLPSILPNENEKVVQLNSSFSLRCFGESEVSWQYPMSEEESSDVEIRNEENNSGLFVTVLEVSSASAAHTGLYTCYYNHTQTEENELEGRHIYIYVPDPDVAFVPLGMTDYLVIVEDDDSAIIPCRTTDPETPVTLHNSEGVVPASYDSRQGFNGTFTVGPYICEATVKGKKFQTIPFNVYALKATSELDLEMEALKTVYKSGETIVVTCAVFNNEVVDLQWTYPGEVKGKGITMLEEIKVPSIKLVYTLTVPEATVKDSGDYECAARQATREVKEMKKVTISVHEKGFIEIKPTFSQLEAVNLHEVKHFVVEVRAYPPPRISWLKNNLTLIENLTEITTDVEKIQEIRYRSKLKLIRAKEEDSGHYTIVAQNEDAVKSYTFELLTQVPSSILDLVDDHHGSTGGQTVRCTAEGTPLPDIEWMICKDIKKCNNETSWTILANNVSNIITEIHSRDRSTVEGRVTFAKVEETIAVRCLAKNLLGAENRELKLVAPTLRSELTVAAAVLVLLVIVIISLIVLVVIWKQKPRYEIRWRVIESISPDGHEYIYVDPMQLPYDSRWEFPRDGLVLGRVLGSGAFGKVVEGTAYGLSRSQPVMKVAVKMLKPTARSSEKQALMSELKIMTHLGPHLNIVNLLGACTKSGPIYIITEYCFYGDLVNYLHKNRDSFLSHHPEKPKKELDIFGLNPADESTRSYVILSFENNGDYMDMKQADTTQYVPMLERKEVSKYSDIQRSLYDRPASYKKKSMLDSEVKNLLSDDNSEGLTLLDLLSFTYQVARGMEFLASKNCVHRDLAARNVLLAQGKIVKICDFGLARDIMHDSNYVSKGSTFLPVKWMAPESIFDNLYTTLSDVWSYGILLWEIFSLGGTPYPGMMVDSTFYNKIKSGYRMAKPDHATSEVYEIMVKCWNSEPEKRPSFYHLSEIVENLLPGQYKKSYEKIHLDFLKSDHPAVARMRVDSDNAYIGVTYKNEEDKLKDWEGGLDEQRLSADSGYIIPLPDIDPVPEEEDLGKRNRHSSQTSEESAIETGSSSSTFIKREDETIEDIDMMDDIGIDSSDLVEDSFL
Description: as §1

PKD2(h) = molecular target: T4, PKD2(h) (Homo sapiens, UniProt Q9BZL6)
T4 construct: gene PRKD2
Description: as §1

MST2(h) = molecular target: T5, MST2(h) (Homo sapiens, UniProt Q13188)
T5 construct: gene STK3
Description: as §1

CDK3/cyclinE(h) = CDK3/cyclinE(h) (Homo sapiens, UniProt Q00526)
Sequence of CDK3/cyclinE(h) (Q00526 whole entry): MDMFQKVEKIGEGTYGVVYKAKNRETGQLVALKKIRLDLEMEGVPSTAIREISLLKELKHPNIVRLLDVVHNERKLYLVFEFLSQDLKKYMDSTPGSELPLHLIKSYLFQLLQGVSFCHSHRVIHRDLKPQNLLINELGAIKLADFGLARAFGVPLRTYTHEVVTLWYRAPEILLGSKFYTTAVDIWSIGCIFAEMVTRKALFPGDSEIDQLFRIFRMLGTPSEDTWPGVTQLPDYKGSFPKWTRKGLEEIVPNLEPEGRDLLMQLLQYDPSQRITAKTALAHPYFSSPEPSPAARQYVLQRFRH
Sequence of CDK3/cyclinE(h) (P24864 whole entry partner): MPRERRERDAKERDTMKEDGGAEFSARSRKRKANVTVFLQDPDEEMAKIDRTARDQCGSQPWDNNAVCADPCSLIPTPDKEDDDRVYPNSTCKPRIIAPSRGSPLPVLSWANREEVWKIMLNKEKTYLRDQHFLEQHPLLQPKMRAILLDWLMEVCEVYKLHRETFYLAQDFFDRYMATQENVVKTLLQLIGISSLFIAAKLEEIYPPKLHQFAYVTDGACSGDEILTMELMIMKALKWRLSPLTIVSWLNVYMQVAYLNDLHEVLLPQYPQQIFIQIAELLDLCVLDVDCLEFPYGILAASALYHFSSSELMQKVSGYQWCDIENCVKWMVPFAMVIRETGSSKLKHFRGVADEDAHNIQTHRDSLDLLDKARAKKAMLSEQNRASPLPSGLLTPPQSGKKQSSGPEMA
Description: as §1

JNK2α2(h) = molecular target: T6, JNK2α2(h) (Homo sapiens, UniProt P45984)
T6 construct: gene MAPK9; isoform alpha2
T6 sequence (P45984 whole entry, canonical isoform): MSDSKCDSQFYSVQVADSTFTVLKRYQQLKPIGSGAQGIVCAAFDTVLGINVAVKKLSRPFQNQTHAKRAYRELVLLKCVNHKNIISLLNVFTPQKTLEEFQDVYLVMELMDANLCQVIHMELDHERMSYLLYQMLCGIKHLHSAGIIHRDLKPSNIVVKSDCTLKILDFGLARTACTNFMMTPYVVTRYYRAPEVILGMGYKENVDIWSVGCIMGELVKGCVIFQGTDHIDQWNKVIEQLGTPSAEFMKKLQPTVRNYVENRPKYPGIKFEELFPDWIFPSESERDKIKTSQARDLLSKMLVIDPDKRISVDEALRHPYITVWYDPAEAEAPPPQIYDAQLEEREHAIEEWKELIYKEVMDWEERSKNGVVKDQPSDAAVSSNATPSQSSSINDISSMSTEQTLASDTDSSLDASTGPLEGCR
Description: as §1

JNK3(h) = molecular target: T7, JNK3(h) (Homo sapiens, UniProt P53779)
T7 construct: gene MAPK10
Description: as §1

SIK(h) = molecular target: T8, SIK(h) (Homo sapiens, UniProt P57059)
T8 construct: gene SIK1
Description: as §1

JNK1α1(h) = molecular target: T9, JNK1α1(h) (Homo sapiens, UniProt P45983)
T9 construct: gene MAPK8; isoform alpha1
T9 sequence (P45983 whole entry, canonical isoform): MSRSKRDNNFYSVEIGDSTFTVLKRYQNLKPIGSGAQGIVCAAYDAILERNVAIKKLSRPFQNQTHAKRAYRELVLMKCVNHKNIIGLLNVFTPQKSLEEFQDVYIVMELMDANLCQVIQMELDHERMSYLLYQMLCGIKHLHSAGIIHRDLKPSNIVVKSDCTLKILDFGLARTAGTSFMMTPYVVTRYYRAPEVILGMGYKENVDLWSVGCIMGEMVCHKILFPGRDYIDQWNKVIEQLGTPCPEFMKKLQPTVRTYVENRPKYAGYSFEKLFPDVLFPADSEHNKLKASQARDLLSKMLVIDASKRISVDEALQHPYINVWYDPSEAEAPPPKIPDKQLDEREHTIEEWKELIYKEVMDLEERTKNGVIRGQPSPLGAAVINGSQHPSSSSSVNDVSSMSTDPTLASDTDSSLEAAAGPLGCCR
Description: as §1

Flt3(h) = Flt3(h) (Homo sapiens, UniProt P36888)
Sequence of Flt3(h) (P36888 whole entry): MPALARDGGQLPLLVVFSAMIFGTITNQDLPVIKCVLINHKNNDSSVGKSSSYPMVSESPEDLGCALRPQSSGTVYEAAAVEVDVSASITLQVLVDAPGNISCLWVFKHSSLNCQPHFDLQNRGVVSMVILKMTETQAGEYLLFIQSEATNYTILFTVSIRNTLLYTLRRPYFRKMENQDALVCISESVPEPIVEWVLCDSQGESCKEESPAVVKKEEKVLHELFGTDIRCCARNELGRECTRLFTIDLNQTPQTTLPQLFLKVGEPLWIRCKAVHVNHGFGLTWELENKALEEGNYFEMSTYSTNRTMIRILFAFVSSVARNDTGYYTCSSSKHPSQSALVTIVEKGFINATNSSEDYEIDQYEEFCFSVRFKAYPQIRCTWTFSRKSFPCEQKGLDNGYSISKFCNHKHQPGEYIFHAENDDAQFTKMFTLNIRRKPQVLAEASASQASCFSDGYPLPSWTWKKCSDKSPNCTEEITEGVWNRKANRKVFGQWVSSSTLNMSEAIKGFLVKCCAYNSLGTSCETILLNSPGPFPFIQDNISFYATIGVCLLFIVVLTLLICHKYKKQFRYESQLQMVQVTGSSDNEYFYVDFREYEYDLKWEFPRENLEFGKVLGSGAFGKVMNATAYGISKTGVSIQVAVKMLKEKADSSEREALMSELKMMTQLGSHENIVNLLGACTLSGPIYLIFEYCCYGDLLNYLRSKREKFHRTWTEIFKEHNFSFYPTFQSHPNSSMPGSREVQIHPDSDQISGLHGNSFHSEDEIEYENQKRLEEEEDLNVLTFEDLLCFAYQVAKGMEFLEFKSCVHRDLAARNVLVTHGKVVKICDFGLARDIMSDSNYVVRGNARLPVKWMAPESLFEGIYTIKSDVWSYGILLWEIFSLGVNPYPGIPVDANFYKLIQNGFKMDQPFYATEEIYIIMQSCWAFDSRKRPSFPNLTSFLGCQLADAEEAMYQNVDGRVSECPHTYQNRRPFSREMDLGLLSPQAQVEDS
Description: as §1

PKBß(h) = molecular target: T10, PKBß(h) (Homo sapiens, UniProt P31751)
T10 construct: gene AKT2
Description: as §1

PDK1(h) = molecular target: T11, PDK1(h) (Homo sapiens, UniProt O15530)
T11 construct: gene PDPK1
Description: as §1

SGK(h) = molecular target: T12, SGK(h) (Homo sapiens, UniProt O00141)
T12 construct: gene SGK1
Description: as §1

ALK(h) = ALK(h) (Homo sapiens, UniProt Q9UM73)
Description: as §1

Oc1ccc(/C=C/c2cc(O)cc(O)c2)cc1 [Res, resveratrol] gave a remaining activity at 20 µM (CDK6/cyclinD3(h)) of 55 ± 2%, a remaining activity at 20 µM (PI 3-Kinaseγ(h)) of 101 ± 1% and a remaining activity at 20 µM (PAK2(h)) of 98 ± 4%. For the same compound, the remaining activity at 20 µM (TrkA(h)) was 31 ± 3%, the remaining activity at 20 µM (PAK3(h)) was 46% and the remaining activity at 20 µM (PDGFRα(h)) was 114 ± 2%. The remaining activity at 20 µM (PKD2(h)) was 88 ± 5%, the remaining activity at 20 µM (MST2(h)) was 73 ± 8% and the remaining activity at 20 µM (CDK3/cyclinE(h)) was 75 ± 4%. For the same compound, the remaining activity at 20 µM (JNK2α2(h)) was 110 ± 4%, the remaining activity at 20 µM (JNK3(h)) was 98 ± 3% and the remaining activity at 20 µM (SIK(h)) was 76 ± 1%. The remaining activity at 20 µM (JNK1α1(h)) was 89 ± 5%, the remaining activity at 20 µM (Flt3(h)) was 41 ± 1% and the remaining activity at 20 µM (PKBß(h)) was 105 ± 3%. It also gave a remaining activity at 20 µM (PDK1(h)) of 108 ± 7%, a remaining activity at 20 µM (SGK(h)) of 86 ± 13% and a remaining activity at 20 µM (ALK(h)) of 39%.
